Laboratory results: patent publication US11345701B1, “KRAS mutant protein inhibitors” (Jacobio Pharmaceuticals Co., Ltd., priority 2021, dated 2022)

Assay: Cynomolgus monkey pharmacokinetic study
Format: in vivo
Conditions: for CL / VSS / AUC0-24h / Cmax / Oral BA (F %): cynomolgus monkey; for CL / VSS: 1 mg/kg, iv; for AUC0-24h / Cmax / Oral BA (F %) / AUC0-24 h relative to the control compound Amg-510: 3 mg/kg, po
Experimental: The purpose of this study was to evaluate the pharmacokinetic properties of compounds in cynomolgus monkey following single dose administration. The day before administration, monkeys were fasted overnight and free access to water. Four monkeys are needed for each compound and the four monkeys were divided into two groups, group A and group B (one male (♂) and one female (♀) in each group). Monkeys in group A were treated with a single 1 mg/kg dose of compound (iv). Monkeys in group B were treated with a single 3 mg/kg dose of compound (po). For monkeys in group A, blood samples were collected at pre-dose, and at the time point of 0.083, 0.25, 0.5, 1, 2, 4, 6, 8 and 24 h post-dose. For monkeys in group B, blood samples were collected at pre-dose, and at the time point of 0.25, 0.5, 1, 2, 4, 6, 8 and 24 h post-dose. Blood samples were placed on ice until centrifugation to obtain plasma samples. The plasma samples were stored at −80° C. until analysis. The concentration of compound in plasma samples was determined using a LC-MS/MS method.

With `C=CC(=O)N1CCN(c2nc(=O)n(-c3c(C)ccnc3C(C)C)c3nc(-c4c(N)c(F)c(F)c(F)c4F)c(F)cc23)[C@@H](C)C1` (atropisomer, axis not shown; (M)) [Compound 2-1, (M)-4-((S)-4-acryloyl-2-methylpiperazin-1-yl)-7-(2-amino-3,4,5,6-tetrafluorophenyl)-6-fluoro-1-(2-isopropyl-4-methylpyridin-3-yl)pyrido[2,3-d]pyrimidin-2(1H)-one] as the compound, how does the CL (female) read?
The CL was 8.20 mL/min/kg.

What about the VSS (female) of the same compound?
The VSS was 0.507 L/kg.

And the AUC0-24h (female)?
Its AUC0-24h is 2494 ng·h/mL.

And the Cmax (female)?
Its Cmax is 1060 ng/mL.

And the “Oral BA (F %)” value (female)?
Its value is 41.2%.

And the CL (male)?
Its CL is 8.26 mL/min/kg.

What about the VSS (male) of the same compound?
The VSS was 0.555 L/kg.

What about the AUC0-24h (male) of the same compound?
The AUC0-24h was 3253 ng·h/mL.

And the Cmax (male)?
Its Cmax is 1580 ng/mL.

What about the “Oral BA (F %)” value (male) of the same compound?
Its value is 54.1%.

What about the “AUC0-24 h relative to the control compound Amg-510” value (female cynomolgus monkey) of the same compound?
The value was “more than 10 times”.

What about the “AUC0-24 h relative to the control compound Amg-510” value (male cynomolgus monkey) of the same compound?
The value was “more than 15 times”.

What about the “Pharmacokinetic properties in words” value (monkey model) of the same compound?
Its value is “excellent pharmacokinetic properties”.
